Patent US10683553B2, “Method for determining sensitivity to simultaneous inhibitor against PARP and Tankyrase” (THE ASAN FOUNDATION, priority 2015, dated 2020)

Experiments:
Assay type in all cases: cell-based
[1] = test system: RKO human colon cancer cell line; assay: DNA damage by r-H2AX immunocytochemistry; conditions: RKO (p53 normal, LIG4 mutant); 50 μM, 48 hours
Description: In order to analyze the degree of DNA damage of Compound A, which is a novel PARP/Tankyrase simultaneous inhibitor, when the p53 gene is a normal type and the LIG4 gene is a mutant type, the present inventors treated a novel PARP/Tankyrase simultaneous inhibitor, Compound A, and the competitive drug PARP inhibitor, olaparib, in the RKO human colon cancer cell line in which the p53 gene is a normal type and the LIG4 gene is a mutant type, and the DNA damage was confirmed by the immunochemical method as the expression level of r-H2AX. The conditions and methods of the experiment were as follows: RKO human colon cancer cell line in which the p53 gene is a normal type and the LIG4 gene is a mutant type was cultured in RPMI1640 (10% FBS, 1% penicillin/streptomycin) and cultured in a 60 mm plate at 1×10^5 per well for 24 hours at 37° C. […] The r-H2AX antibody was diluted at a ratio of 1:100 in 1% BSA, reacted overnight at 4° C., washed three times for 10 minutes with TBS-T buffer, and the secondary antibody (Alexa Fluor®488 fitc) was diluted at a ratio of 1:100 in 1% BSA, reacted at room temperature for 2 hours, and then washed with TBS-T A buffer three times for 10 minutes, and stained with DAPI to confirm the expression level of r-H2AX under a fluorescence microscope.

[2] = test system: Colo205 colon cancer cell line; assay: MTS cell viability / IC50; conditions: Homo sapiens, COLO 205
Description: (§1) The present inventors conducted an in vitro cell base assay to analyze the anticancer activity of Compound A, which is a novel PARP/Tankyrase simultaneous inhibitor, in 18 human colon cancer cell lines (Korean Cell Line Bank and ATCC purchased), and the cell viability and IC50 of the cell lines for Compound A, the novel PARP/Tankyrase simultaneous inhibitor, were measured.
(§2) As the experimental conditions and methods, a total of 18 human colon cancer cell lines were cultured in RPMI1640 (Roswell Park Memorial Institute 1640; 10% FBS, 1% penicillin/streptomycin), and each cell line was cultured in 96 well plate for 2×10^3 per well at 37° C. for 24 hours and the novel PARP/Tankyrase simultaneous inhibitor, Compound A, was diluted by a multiple of 2 at a maximum of 100 μM and a minimum of 0.390625 μM (100 μM, 50 μM, 25 μM, 12.5 μM, 6.25 μM, 3.125 μM, 1.5625 μM, 0.78125 μM and 0.390625 μM). After the treatment, it was cultured at 37° C. for 72 hours. As for the drug treatment group and non-treatment group, the cell viability of each cell line was measured by MTS analysis (Promega, CellTiter 96 AQeous One Solution) and the IC50 of each cell line was measured using the PRISM program.
(§3) The present inventors analyzed the correlation of 18 human colon cancer cell lines, an anti-cancer effect of Compound A which is a novel PARP/Tankyrase simultaneous inhibitor and the genotype of the p53 gene through an in vitro cell base assay in the same experimental method as Example 1 in 18 human colon cancer cell lines.

[3] = test system: DLD-1 colon cancer cell line; assay: MTS cell viability / IC50; conditions: Homo sapiens
Description: as §1, §2, §3

[4] = test system: HCT116 colon cancer cell line; assay: MTS cell viability / IC50; conditions: Homo sapiens, HCT-116
Description: as §1, §2, §3

[5] = test system: HT-29 colon cancer cell line; assay: MTS cell viability / IC50; conditions: Homo sapiens
Description: as §1, §2, §3

[6] = test system: Colo201 colon cancer cell line; assay: MTS cell viability / IC50; conditions: Homo sapiens, COLO 201
Description: as §1, §2, §3

[7] = test system: SW1417 colon cancer cell line; assay: MTS cell viability / IC50; conditions: Homo sapiens
Description: as §1, §2, §3

[8] = test system: SW480 colon cancer cell line; assay: MTS cell viability / IC50; conditions: Homo sapiens
Description: as §1, §2, §3

[9] = test system: Caco-2 colon cancer cell line; assay: MTS cell viability / IC50; conditions: Homo sapiens
Description: as §1, §2, §3

[10] = test system: HCT-15 colon cancer cell line; assay: MTS cell viability / IC50; conditions: Homo sapiens
Description: as §1, §2, §3

[11] = test system: Ls1034 colon cancer cell line; assay: MTS cell viability / IC50; conditions: Homo sapiens, LS-1034
Description: as §1, §2, §3

[12] = test system: LoVo colon cancer cell line; assay: MTS cell viability / IC50; conditions: Homo sapiens
Description: as §1, §2, §3

[13] = test system: Ls174T colon cancer cell line; assay: MTS cell viability / IC50; conditions: Homo sapiens
Description: as §1, §2, §3

[14] = test system: SW48 colon cancer cell line; assay: MTS cell viability / IC50; conditions: Homo sapiens
Description: as §1, §2, §3

[15] = test system: Colo320HSR colon cancer cell line; assay: MTS cell viability / IC50; conditions: Homo sapiens, COLO-320-HSR
Description: as §1, §2, §3

CCOc1cc(CN(C)C)cc2[nH]c(=O)c3c(c12)NCCC3 [Compound A, 8-[(dimethylamino)methyl]-10-ethoxy-1,2,3,4-tetrahydrobenzo[h][1,6]naphthyridin-5(6H)-one]
DNA damage: expression level of r-H2AX (immunocytochemistry) [1]: expression of r-H2AX was increased
IC50 ([2]; Colo205, p53 Mutant type cell line): 24.4 µM
IC50 ([2]; Colo205, MTS, 72 hours): 24.4 µM
IC50 ([3]; DLD-1, p53 Mutant type cell line): 85.6 µM
IC50 ([3]; DLD-1, MTS, 72 hours): 85.6 µM
IC50 ([4]; HCT116, p53 Wild-type cell line): 13.2 µM
IC50 ([4]; HCT116, MTS, 72 hours): 13.2 µM
IC50 ([5]; HT29, p53 Mutant type cell line): 32.2 µM
IC50 ([5]; MTS, 72 hours): 32.2 µM
IC50 ([6]; Colo201, p53 Mutant type cell line): 28.4 µM
IC50 ([6]; Colo201, MTS, 72 hours): 28.4 µM
IC50 ([7]; SW1417, p53 Mutant type cell line): > 100 µM
IC50 ([7]; SW1417, MTS, 72 hours): > 100 µM
IC50 ([8]; SW480, p53 Mutant type cell line): > 100 µM
IC50 ([8]; SW480, MTS, 72 hours): > 100 µM
IC50 ([9]; Caco-2, p53 Mutant type cell line): 19.2 µM
IC50 ([9]; Caco-2, MTS, 72 hours): 19.2 µM
IC50 ([10]; HCT-15, p53 Mutant type cell line): > 100 µM
IC50 ([10]; HCT-15, MTS, 72 hours): > 100 µM
IC50 ([11]; LS1034, p53 Mutant type cell line): > 100 µM
IC50 ([11]; Ls1034, MTS, 72 hours): > 100 µM
IC50 ([12]; MTS, 72 hours): 18.6 µM
IC50 ([12]; p53 Wild-type cell line): 18.6 µM
IC50 ([13]; LS174T, p53 Wild-type cell line): 12.2 µM
IC50 ([13]; Ls174T, MTS, 72 hours): 12.2 µM
IC50 ([14]; SW48, p53 Wild-type cell line): > 100 µM
IC50 ([14]; SW48, MTS, 72 hours): > 100 µM
IC50 ([15]; Colo320, MTS, 72 hours): 8.27 µM
IC50 ([15]; Colo320HSR, p53 Mutant type cell line): 8.27 µM
